Data on one compound can be found in paper PMC3237458, “PEGylation Potentiates the Effectiveness of an Antagonistic Peptide That Targets the EphB4 Receptor with Nanomolar Affinity” (PLoS ONE, 2011).

Entries after “also recorded” stand apart in the source; their conditions may differ. Square brackets hold non-standard residues; d marks the D form. Peptide text beside a SMILES is read from it. * marks the point of attachment. Biotin = O=C1N[C@H]2[C@H](CS[C@H]2CCCCC(=O)*)N1; Ahx = NCCCCCC(=O)O

One series deals with HUVECs and EMCs. The series is described as follows: Capillary-like tube formation on Matrigel. Format: cell-based. Particulars: HUVECs and EMCs 2:1, Matrigel, 15 hours; TNYL-RAW tested up to 20 µM; Figure 6. As to the method: An EMC clone expressing EGFP was generated by transducing EMCs (a kind gift from H. Eid) with a lentiviral construct followed by clonal selection. To generate capillary-like tubes, HUVECs (2.8×10^4), EMCs (7.5×10^4) or a mixture of the two cell types (2.8×10^4 HUVECs and 1.4×10^4 EMCs) were grown for 5 to 20 hours in 24-well tissue culture plates (Corning, Corning, NY) precoated with 80 µl Matrigel (BD Bioscience, San Jose, CA) in Medium 200 or DMEM complete culture medium containing PEG-TNYL-RAW or PEG control. In some experiments, mixed cultures were treated with TNYL-RAW or DMSO control. The cells were then fixed for 15 min in 4% formaldehyde in PBS and photographed under a fluorescence microscope. Tube length was quantified using ImageJ software.

A further series has as its target EphB4-ephrin-B2 binding. Conditions: ELISA assays; read-out: IC50 for inhibition of EphB4-ephrin-B2 binding; cited from earlier work. The source says:
An explanation for the discrepancy in the potency of the peptide in biochemical and cell culture assays could be that TNYL-RAW is susceptible to degradation by proteases present in cell culture medium. For example, trypsin-like proteases are l ...
In general terms: An ELISA detects its analyte on a solid surface through an enzyme-linked reagent.

Series [1] in a line: Peptide retention in mouse blood circulation. Particulars: 6 nmoles biotinylated TNYL-RAW IV, 3 mice, serum diluted 1:20, ELISA on EphB4 Fc; Figure 1D. Format: in vivo. As to the method:
2.1 nmoles TNYL-RAW-Fc, 1.5 nmoles TNYL-RAW-streptavidin and 6 nmoles PEG-TNYL-RAW, diluted in 150 µl sterile PBS, were administered to C57BL/6 mice by intravenous or intraperitoneal injection. Blood was collected from each mouse from the orbital sinus at two time points after injection and by cardiac puncture under Avertin anesthesia at a third time point. These experiments were carried out in accordance with the recommendations in the Guide for the Care and Use of Laboratory Animals of the National Institutes of Health. The protocol was approved by the Institutional Animal Care and Use Committee of the Sanford-Burnham Medical Research Institute (Animal Assurance Number: A-3053-1). After collection, the blood was […], and the serum was stored at −20°C. The different forms of TNYL-RAW in the serum were detected by using the same ELISA assays described above for measurements of binding affinity. The absorbance from wells incubated with mouse serum without TNYL-RAW was subtracted as the background and the concentration of TNYL-RAW in the blood was calculated based on a standard curve generated using serum containing known TNYL-RAW concentrations. The half-life of each peptide was estimated by using non linear regression and the program Prism (GraphPad Software Inc.). The area under the curve (AUC) was expressed as % ID•hours/ml (where ID is the initial dose of peptide injected) and calculated by dividing the AUC value obtained using the program Prism by the amount of injected peptide and multiplying by 100.

The target in a further series is human EphB4. Conditions: human EphB4, isothermal titration calorimetry; cited from earlier work. The source says:
(§1) Inhibiting EphB4-ephrin-B2 interaction could therefore be useful for diverse medical applications. […] A 15 amino acid-long EphB4 antagonistic peptide, TNYL-RAW (TNYLFSPNGPIARAW), could represent an alternative to the large EphB4 e ...

Another series addresses mouse EphB4. Conditions: mouse EphB4, surface plasmon resonance; cited from earlier work.
Excerpt: as §1

Another series deals with Eph receptors. Conditions: cited from earlier work.
Excerpt: as §1

Take `CC[C@H](C)[C@H](NC(=O)[C@@H]1CCCN1C(=O)CNC(=O)[C@H](CC(N)=O)NC(=O)[C@@H]1CCCN1C(=O)[C@H](CO)NC(=O)[C@H](Cc1ccccc1)NC(=O)[C@H](CC(C)C)NC(=O)[C@H](Cc1ccc(O)cc1)NC(=O)[C@H](CC(N)=O)NC(=O)[C@@H](N)[C@@H](C)O)C(=O)N[C@@H](C)C(=O)N[C@@H](CCCNC(=N)N)C(=O)N[C@@H](C)C(=O)N[C@@H](Cc1c[nH]c2ccccc12)C(=O)NCCCCCC(=O)N[C@@H](CCCCNC(=O)CCCC[C@@H]1SC[C@@H]2NC(=O)N[C@@H]21)C(N)=O` [TNYL-RAW] (H-TNYLFSPNGPIARAW[Ahx]K(Biotin)-NH2; N-terminus and C-terminus assumed): the “Effect on capillary-like tube formation in co-cultures at different concentrations” value with HUVECs and EMCs is given as “does not have significant effects; also recorded: does not have a significant effect”. In addition, the IC50 on EphB4-ephrin-B2 binding was around 15 nM. Besides, the “Detection in mouse serum 30 min after intravenous administration” value in series [1] is “could not be detected; also recorded: undetectable”. Further, the Kd on human EphB4 is 70 nM; on mouse EphB4, 3 nM. Further, the “Selectivity of binding among Eph receptors” value with Eph receptors is listed as “selectively binds to EphB4 but not any other Eph receptor”.

The IC50 is the concentration at which inhibition is half-maximal. Usually Kd stands for the free concentration of one partner at which half of the binding sites on the other are occupied at equilibrium, for simple one-to-one binding.
